17 compounds from patent publication US5436246A, “Serotonin receptor agents” (priority 1993, dated 1995) can be followed below.

pIC50: −log10 of the molar value. Counter-ions that a name gives are not always drawn. Like-named read-outs stand apart in the source and are kept apart here.

In one assay the target is T1, 5HT1D receptor (Bos taurus, UniProt F1MGM3).
T1 construct: from tissue
Briefly: 5HT1D receptor binding affinity (procedure of Peroutka et al.).

A further assay concerns the target 5-HT1D receptors (Canis lupus familiaris, UniProt P79250). On the set-up: species or system dog (canine). To be noted: for Emax: dog, read-out: intrinsic (agonist) activity, saphenous vein preparation. As to the method:
(§1) In the following examples, the compounds binding affinity for both the 5HT1A receptor and 5HT1D receptors is reported. The compounds affinity for the 5HT1D site was determined by the binding procedure of Peroutka et al as reported in European Journal of Pharmacology, Vol. 163 at pages 133-166 (1989). The compounds affinity for the 5HT1A receptor was determined by the procedure of Gozlan et al., as reported in Nature, Volume 305, at pages 140-142 (1983). Where multiple determinations of the binding affinity have been performed, the average is given followed by the number of determinations in parentheses. Also, the PA2 value for the saphenous vein preparation as described in this application is given, followed by the intrinsic (agonist) activity in parentheses, expressed as a percentage. [drawing 10]
We have used canine saphenous vein for studying 5-HT1D receptors which is similar, although not totally identical, to human coronary 5-HT1D receptors (see Humphrey, P. P. A., Feniuk, W., Perren, M. J., Connor, H. E., Oxford, A. W., Coates, I. H. and Butina, D.: GR43175, a selective agonist for the 5-HT1 -like receptor in dog isolated saphenous vein, Br. J. Pharmacol. 94:1123-1132, 1988; Kaumann, A. J.: Human heart 5-HT receptors, Second international symposium on serotonin, from cell biology to pharmacology and therapeutics, Houston, Sep. 15-18, 1992).
Mongrel dogs weighing 12-18 kg were killed by an intravenous injection of an overdose of sodium pentobarbitol. Saphenous veins were isolated, removed, cleaned of surrounding connective tissue, and cut into helical strips in a dish containing Krebs-Henseleit solution with the following composition in mM: NaCl, 110.0; KCl, 4.8; CaCl2, 2.5; KH2 PO4, 1.2; EDTA(NaEDTA), 0.027; and was constantly bubbled with 95% O2 -5% CO2. Unless otherwise specified, the endothelium of the […] was removed by rubbing with a metal rod. The intactness or absence of functional endothelium was checked by the presence or absence of a relaxant effect of acetycholine (10^-5 M) in phenylephrine-contracted tissues (see Furchgott, R. F. and Zawadzki, J. V.: The obligatory role of endothelial cells in the relaxtion of arterial smooth muscle by acetycholine, Nature 288:373-376, 1980). Each muscle strip (3×30 mm) was set up in a tissue bath at 37° C. and loaded with 2 gram tension. Contractility of the tissues was measured isometrically with a Grass FT03 force-displacement transducer and recorded on a Strip chart recorder. The tissues were allowed to stabilize for 2 hours before the experiment was started, during which time they were washed repeatedly. Tissues were contracted with 3.162×10^-6 M phenylephrine and 40 mM KCl, which produced 60-70% of their maximum contractile responses, to condition the tissue. 5-HT dose response experiment was conducted. Test compounds were then incubated with the tissue before a second 5-HT dose response experiment was performed. Data are expressed as the pA2 value, the negative logarithm of the molar concentration of antagonist which produced a 2 fold shift in ED50 values of 5-HT dose response curves (see Van Rossum, J. M.: Cumulative dose-response curve: Technique for the making of dose-response curves in isolated organs and the evaluation of drug parameters, Arch. Int. Pharmacodyn. Ther. 143:299-330, 1963).

In the next assay the target is T2, 5HT1A receptor (Rattus norvegicus, UniProt P19327).
T2 sequence (P19327 1-422): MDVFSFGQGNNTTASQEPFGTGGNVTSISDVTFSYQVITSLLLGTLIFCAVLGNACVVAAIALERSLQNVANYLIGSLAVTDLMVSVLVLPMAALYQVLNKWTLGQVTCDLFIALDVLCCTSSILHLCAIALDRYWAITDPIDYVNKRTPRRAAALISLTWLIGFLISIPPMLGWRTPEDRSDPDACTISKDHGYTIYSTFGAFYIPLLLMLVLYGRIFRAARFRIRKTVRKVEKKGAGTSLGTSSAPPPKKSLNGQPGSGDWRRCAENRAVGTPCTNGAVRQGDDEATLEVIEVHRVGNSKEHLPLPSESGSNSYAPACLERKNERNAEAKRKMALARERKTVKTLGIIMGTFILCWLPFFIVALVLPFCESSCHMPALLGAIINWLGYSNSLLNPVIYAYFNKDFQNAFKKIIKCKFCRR
Briefly: 5HT1A receptor binding affinity (procedure of Gozlan et al.). As to the method:
as §1, with “10] […]” for “10]”

Setting [1] is: negative log molar concentration of antagonist producing 2 fold shift in ED50 of 5-HT dose response curves, read-out: pA2 (blocking of 5-HT1-like-mediated contraction in canine saphenous vein) (converted).
The mark [2] stands for this setting: average of multiple determinations where number in parentheses is given, read-out: IC50 (5HT1D Binding Affinity).
[3] abbreviates: canine saphenous vein, printed in parentheses after pA2.
Setting [4] is: average of multiple determinations where number in parentheses is given, read-out: IC50 (5HT1A Binding Affinity).

T1 sequence (F1MGM3 1-403): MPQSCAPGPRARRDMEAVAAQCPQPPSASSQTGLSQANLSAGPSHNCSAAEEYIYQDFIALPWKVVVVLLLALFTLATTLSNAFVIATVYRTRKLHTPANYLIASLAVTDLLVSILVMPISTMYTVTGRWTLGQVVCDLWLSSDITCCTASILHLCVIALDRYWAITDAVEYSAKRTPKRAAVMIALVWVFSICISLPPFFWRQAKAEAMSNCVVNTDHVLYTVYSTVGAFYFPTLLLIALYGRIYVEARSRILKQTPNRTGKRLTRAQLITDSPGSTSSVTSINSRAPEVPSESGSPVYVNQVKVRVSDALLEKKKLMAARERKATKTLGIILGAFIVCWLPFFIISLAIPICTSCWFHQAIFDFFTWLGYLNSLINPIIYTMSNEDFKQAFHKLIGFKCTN
Sequence of 5-HT1D receptors (P79250 whole entry): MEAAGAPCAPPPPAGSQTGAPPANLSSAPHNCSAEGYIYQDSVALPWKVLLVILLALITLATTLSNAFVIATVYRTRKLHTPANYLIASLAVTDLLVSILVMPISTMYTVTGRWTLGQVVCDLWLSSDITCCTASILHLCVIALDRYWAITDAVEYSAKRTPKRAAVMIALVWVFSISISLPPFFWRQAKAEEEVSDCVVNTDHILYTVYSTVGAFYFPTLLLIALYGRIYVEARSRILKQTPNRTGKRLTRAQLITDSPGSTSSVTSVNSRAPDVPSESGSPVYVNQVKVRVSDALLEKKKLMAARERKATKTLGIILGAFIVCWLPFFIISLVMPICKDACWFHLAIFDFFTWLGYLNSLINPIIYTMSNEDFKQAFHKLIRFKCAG
Experimental for 5HT1D receptor: The compounds affinity for the 5HT1D site was determined by the binding procedure of Peroutka et al as reported in European Journal of Pharmacology, Vol. 163 at pages 133-166 (1989). […] Where multiple determinations of the binding affinity have been performed, the average is given followed by the number of determinations in parentheses.

Usually pIC50 stands for −log10 of the IC50, conventionally taken in molar units. For `CNC(=O)c1cc2c(N3CCN(CCc4ccccc4)CC3)cccc2s1` [Example 10, 4-[4-(2-phenylethyl)-1-piperazinyl]-benzo[b]thiophene-2-(N-methyl)-carboxamide monohydrochloride], the pIC50 at 5HT1D receptor and on 5HT1A receptor was 9.00 each time. Further, the Emax on 5-HT1D receptors turned out to be 25%. The Kb on 5-HT1D receptors (setting [1]) was 0.0251 nM.

`CN(C)C(=O)c1cc2c(N3CCN(CCc4ccccc4)CC3)cccc2s1` [Example 11, 4-[4-(2-phenylethyl)-1-piperazinyl]-benzo[b]thiophene-2-(N,N-dimethyl)-carboxamide monohydrochloride]: the values for the pIC50 on 5HT1D receptor (setting [2]) and on 5HT1A receptor (setting [4]) were 8.52 and 8.64, respectively. Besides, the Emax on 5-HT1D receptors (setting [3]) stood at 2%. For the same compound, the Kb at 5-HT1D receptors (setting [1]) is 0.977 nM.

Turning to `O=C(Nc1ccccc1)c1cc2c(N3CCN(CCc4ccccc4)CC3)cccc2s1` [Example 12, 4-[4-(2-phenylethyl)-1-piperazinyl]-benzo[b]thiophene2-(N-phenyl)-carboxamide monohydrochloride], the pIC50 on 5HT1D receptor (setting [2]) is 6.66; at 5HT1A receptor (setting [4]), 7.07. In addition, at 5-HT1D receptors (setting [3]), the Emax is 0%. For the same compound, on 5-HT1D receptors (setting [1]), the Kb was 18.2 nM.

On to `O=C(NCc1ccccc1)c1cc2c(N3CCN(CCc4ccccc4)CC3)cccc2s1` [Example 13, 4-[4-(2-phenylethyl)-1-piperazinyl]-benzo[b]thiophene-2-(N-phenylmethyl)-carboxamide monohydrochloride], for which the pIC50 is 7.51 on 5HT1D receptor (setting [2]) and 7.57 at 5HT1A receptor (setting [4]). Moreover, the Emax at 5-HT1D receptors (setting [3]) turned out to be 0%. Also, on 5-HT1D receptors (setting [1]), the Kb is 1.74 nM.

As to `NC(=O)c1cc2c(N3CCN(CCCc4ccccc4)CC3)cccc2s1` [Example 17, 4-[4-(3-phenylpropyl)-1-piperazinyl]-benzo[b]thiophene-2-carboxamide monohydrochloride], the pIC50 at 5HT1D receptor (setting [2]) was 8.35; at 5HT1A receptor (setting [4]), 9.00. Also, the Kb on 5-HT1D receptors (setting [1]) was 16.6 nM.

As to `CCOC(=O)c1cc2c(N3CCN(CCc4ccc(Cl)cc4)CC3)cccc2s1` [Example 18, ethyl-4-[4-[2-(4-chlorophenyl)ethyl]-1-piperazinyl]-benzo[b]thiophene-2-carboxylate monohydrochloride], the pIC50 on 5HT1D receptor (setting [2]) was 6.39; on 5HT1A receptor (setting [4]), 7.28. In addition, on 5-HT1D receptors (setting [1]), the Kb is 309 nM.

The compound `N#Cc1cc2c(N3CCN(CCc4ccc(Cl)cc4)CC3)cccc2s1` [Example 20, 4-[4-[2-(4-chlorophenyl)ethyl]-1-piperazinyl]-benzo[b]thiophene-2-nitrile monohydrochloride] showed a pIC50 on 5HT1D receptor of 7.51. At 5-HT1D receptors, the Kb is 42.7 nM and the Emax amounted to 34%. In addition, the pIC50 on 5HT1A receptor was 7.89.

Turning to `CCOC(=O)c1cc2c(N3CCN(CCc4ccc(F)cc4)CC3)cccc2s1` [Example 22, ethyl-4-[4-[2-(4-fluorophenyl)ethyl]-1-piperazinyl]-benzo[b]thiophene-2-carboxylate monohydrochloride], the negative-log IC50 (pIC50) was 6.92 at 5HT1D receptor (setting [2]) and 8.13 on 5HT1A receptor (setting [4]). Also, the Emax on 5-HT1D receptors came out at 0%. Also, the Kb on 5-HT1D receptors (setting [1]) is 29.5 nM.

`N#Cc1cc2c(N3CCN(CCc4ccc(F)cc4)CC3)cccc2s1` [Example 24, 4-[4-[2-(4-fluorophenyl)ethyl]-1-piperazinyl]-benzo[b]thiophene-2-nitrile monohydrochloride]: on 5HT1D receptor, the pIC50 was 7.68. Further, at 5-HT1D receptors, the Kb is 6.76 nM and the Emax turned out to be 9%. The pIC50 on 5HT1A receptor was 8.00.

On to `CCCN1CCN(c2cccc3sc(C(=O)OCC)cc23)CC1` [Example 34, Ethyl 4-[(4-propyl)-1-piperazinyl]benzo[b]thiophene-2-carboxylate hydrochloride], for which the pIC50 is 6.38 on 5HT1D receptor (setting [2]) and 6.98 on 5HT1A receptor (setting [4]). Also, at 5-HT1D receptors, the Emax was 12%. For the same compound, at 5-HT1D receptors (setting [1]), the Kb is 166 nM.

In the case of `COCc1cc2c(N3CCN(CCc4ccccc4)CC3)cccc2s1` [Example 37, 4-[4-(2-phenylethyl)-1-piperazinyl]-benzo[b]thiophene-2-(O-methyl)-methanol hydrochloride], the pIC50 at 5HT1D receptor was 8.05; at 5HT1A receptor, 8.30. Besides, at 5-HT1D receptors, the Emax amounted to 0%. The Kb on 5-HT1D receptors (setting [1]) is 9.33 nM.

With `CON(C)C(=O)c1cc2c(N3CCN(CCc4ccccc4)CC3)cccc2s1` [Example 40, 4-[4-(2-phenylethyl)-1-piperazinyl]-benzo[b]thiophene-2-(N-methyl-N-methoxy)-carboxamide hydrochloride], the values for the pIC50 at 5HT1D receptor (setting [2]) and on 5HT1A receptor (setting [4]) were 7.80 and 8.62, respectively. In addition, the Emax on 5-HT1D receptors (setting [3]) was 3%. Besides, the Kb at 5-HT1D receptors (setting [1]) was 3.16 nM.

Turning to `CC(C)(O)c1cc2c(N3CCN(CCc4ccccc4)CC3)cccc2s1` [Example 41, 2-[4-[4-(2-phenylethyl)-1-piperazinyl]benzo[b]thiophene-2-]-(2-propanol) hydrochloride hemihydrate], the results for the pIC50 on 5HT1D receptor and on 5HT1A receptor were 7.80 and 8.40, respectively. In addition, the Emax at 5-HT1D receptors worked out at 16%. The Kb on 5-HT1D receptors (setting [1]) is 36.3 nM.

For the compound `CC(=O)c1cc2c(N3CCN(CCc4ccccc4)CC3)cccc2s1` [Example 42, 1-[4-(4-phenethyl-piperazin-1-yl)-benzo[b]thiophen-2-yl]ethanone hydrochloride], the pIC50 at 5HT1D receptor is 7.66. At 5-HT1D receptors, the Kb was 13.5 nM and the Emax is 1%.

Regarding `O=C(c1cc2c(N3CCN(CCc4ccccc4)CC3)cccc2s1)N1CCCCC1` [Example 56, [4-(4-phenethyl-piperazin-1-yl)-benzo[b]thiophen-2-yl]-piperidin-1-yl methanone hydrochloride], the pIC50 at 5HT1D receptor (setting [2]) is 6.87. Further, on 5-HT1D receptors, the Emax was determined as 2%. Moreover, the Kb at 5-HT1D receptors (setting [1]) was 112 nM.

On to `O=C(c1cc2c(N3CCN(CCc4ccccc4)CC3)cccc2s1)N1CCCC1` [Example 57, [4-(4-phenethyl-piperazin-1-yl)-benzo[b]thiophen-2-yl]-pyrrolidin-1-yl methanone hydrochloride], for which the pIC50 at 5HT1D receptor (setting [2]) is 7.60. Also, at 5-HT1D receptors, the Emax was determined as 0%. Besides, the Kb at 5-HT1D receptors (setting [1]) is 4.27 nM.

Turning to `OCC=Cc1cc2c(N3CCN(CCc4ccccc4)CC3)cccc2s1` [Example 59, 3-[4-(4-phenethyl-piperazin-1-yl)-benzo[b]thiophen-2-yl]-prop-2-en-1-ol hydrochloride], on 5-HT1D receptors, the Kb is 0.55 nM and the Emax worked out at 0%.
